“And” between values parts separate entries of the source, which are not always exact repeats. Equal values may be shown once. Where a name gives a salt, the structure may show the parent alone.
How the values were obtained:
[1] = tested on: BMP-2; assay: Real time PCR of BMP-2 gene expression in human MSC (Cells-to-Ct); assay type: cell-based; settings: BMP-2 mRNA, hMSC, 5-10 μM, 24 hours, vs untreated
Method: Early passage human mesenchymal stem cells (MSC) were thawed from one frozen cryo-vial and seeded into two T-75 tissue culture flasks and incubated at 37° C. for 48 hours in Alpha MEM with 10% FBS. After three days and one re-feeding, the cells were trypsinized and re-suspended in pre-warmed media at 5×10^4 cells/mL to provide 5,000 cells per well in a 96 well plate and incubated overnight at 37° C. in 5% CO2.
Each well was washed in cold PBS, lysed at room temperature for five minutes, and stop reagent added to each well to stop the lysis reaction. The final lysate was kept cold at 4° C. and used immediately as the RNA template for the reverse transcription cDNA synthesis following the TAQMAN GENE EXPRESSION CELLS TO CT KIT instructions.
The cDNA synthesis was prepared on a separate sterile 96-well PCR plate and performed on the Step One Plus Real Time PCR System instrument (Applied Biosystems) with the programming set at 37° C. for 60 minutes and an inactivation hold of 95° C. for five minutes. The final cDNA reaction was kept cold and used as the template for the TAQMAN GENE Real-Time PCR step following the recommended instructions for TAQMAN GENE EXPRESSION CELLS TO CT KIT assay. […] Template cDNA's were added separately to respective individual wells in replicate samples.
The PCR was performed on the STEPONEPLUS Real-Time System instrument (Applied Biosystems). The amplification program consisted of 1 cycle of 95° C. with 10 minute hold (hot start) and followed by 50 cycles of 95° C. with 15-second annealing hold and 1-minute 60° C. specified acquisition hold.

[2] = tested on: BMP2; assay: Quantitative PCR (TaqMan, ΔΔCt) of BMP2 in human mesenchymal stem cells; assay type: cell-based; settings: BMP2 mRNA, hMSC, 10 μM, vs untreated, 18S reference; for fold induction at 10 µM: Homo sapiens, Mesenchymal stem cells, BIOMOL library (Table 2), read-out: q-PCR Fold increase
Method: (§1) Human mesenchymal stem cells (LONZA, Catalog PT2501) were maintained in Mesenchymal stem cells basal media (MSCBM CAT#PT-3238). Early passage cells were plated in triplicate at 2×10^4 cells/cm^2 using six well tissue culture plates and grown in humidified 5% CO2 at 37° C. for 24 hours. Spent media was replaced by assay media of drugs to be tested in same media as above at 10 μM final concentration. Untreated cells were used as the control group. Total RNA were prepared using either TRI Reagent (Ambion, Cat. 9738), for subsequent TaqMan gene expression qPCR of BMP2. RNA concentration and integrity was assessed by absorbance 260/280 and electrophoresis in 1% Agarose with formaldehyde loading dye. For TaqMan gene expression, cDNA was synthesized from 2 μg of total RNA using the High Capacity cDNA Reverse Transcription Kit (Applied Biosystems, Cat. 4368814). The resulting cDNA were diluted 1:100 for TaqMan and amplified by real-time quantitative PCR. Gene-specific fluorescent labeled TaqMan primers for FAM-BMP2 (Applied Biosystems, Hs00154192.m1) and TaqMan reference VIC-18S ribosomal RNA (Applied Biosystems, 4310893E) were used to target gene of interest. A cocktail of universal master mix (Applied Biosystems, 4369016) were prepared individually for both set of primers which contained Taq Polymerase, dNTPs, and buffer. Template cDNA's were added separately to respective individual wells in triplicate samples. The PCR were performed on StepOne Plus Real Time System instrument (Applied Biosystems). The amplification program consisted of 1 cycle of 95° C. with 10 minute hold (hot start) followed by 50 cycles of 95° C. with 15 second annealing hold and 1 minute 60° C. specified acquisition hold. The Ct value of endogenous reference gene (i.e. 18 s) was used to control for input RNA and then used to normalize target gene (i.e. BMP2) tested from the same cDNA sample to calculate the Δ Ct, and then calibrated to an internal reference sample. Change in gene expression was determined by the expression ΔΔCt relative method.
18 compounds were confirmed positive by the more stringent qPCR techniques. […] Included in the tables is the target or common medical use for each compounds.

[3] = tested on: BMP-2; assay: BMP-2 fold change of JHU library compounds, confirmed by qPCR; assay type: cell-based, human; settings: JHU library compounds; non-treated = 1.00
Text: To further verify the technique, a 2T3 mouse pre-osteoblast cell line derived from calvaria courtesy of Dr. Steve Harris, UTHSCSA, was utilized to visually screen the compounds of the BIOMOL library and JHU libraries, purchased from John Hopkins University including 2387 compounds (solution in wells). Specifically, Murine 2T3 were thawed from one frozen cryovial and re-seeded into two T-75 tissue culture flasks grown in Alpha MEM with 10% FBS, Glutamine, and Pen/Strip antibiotics. Cells were incubated in a humidified 37° C. under 5% CO2 for 48 hours or when cells reached 80% confluence. After reaching confluency, the 2T3 were trypsinized and resuspended in pre-warm growth media to a cell density of 5×10^4 cells/mL. Approximately 100 uL of cell suspension was seeded to a 96 well plate to give a final 5,000 cells per well. Plate was incubated overnight at 37° C. and spent media was aspirated and replace with 100 uL of growth media with 5-10 uM of presumptive drug compounds. A set of controls were untreated and treated with 10 uM of Lovastatin to be used as a visual reference morphological screening.
as §1, with “Total RNA were prepared using either TRI Reagent (Ambion, Cat. 9738), for subsequent TaqMan gene expression qPCR of BMP2.” left out, “Gene-specific fluorescent labeled TaqMan primers for FAM-BMP2 (Applied Biosystems, Hs00154192.m1) and TaqMan reference VIC-18S ribosomal RNA (Applied Biosystems, 4310893E) were used to target gene of interest.” left out, “The Ct value of endogenous reference gene (i.e. 18 s) was used to control for input RNA and then used to normalize target gene (i.e. BMP2) tested from the same cDNA sample to calculate the Δ Ct, and then calibrated to an internal reference sample.” left out
Included in the tables is the target or common medical use for each compounds.

[4] = positive control compounds (Table 1)

Row | Compound | Fold change (BMP-2) [3] | other results
1 | COc1ccc(C[C@H](N)C(=O)N[C@H]2[C@@H](O)[C@H](n3cnc4c(N(C)C)ncnc43)O[C@@H]2CO)cc1 [Puromycin] | – | RT PCR Fold increase ([1]; BIOMOL library (Table 2)): 122.3 fold; fold induction at 10 µM [2]: 54.6
2 | CC(=O)[O-].CC(=O)[O-].[Cd+2] [Cadmium Acetate] | 8.00 fold | –
3 | C=C1CC[C@H](O)C/C1=C/C=C1\CCC[C@]2(C)[C@@H]([C@H](C)CCCC(C)(C)O)CC[C@@H]12 [Calcifediol] | – | RT PCR Fold increase ([1]; BIOMOL library (Table 2)): 6.0 fold; fold induction at 10 µM [2]: 3.4
4 | C=C(C)[C@H]1Cc2c(ccc3c2O[C@@H]2COc4cc(OC)c(OC)cc4[C@@H]2C3=O)O1 [ROTENONE] | 61.00 fold | –
5 | Brilliant Blue | 111.00 fold | –
6 | O=[N+]([O-])c1ccc(O)c2ncccc12 [Nitroxoline (8-hydroxy 5-nitroquinoline)] | 18.00 fold | –
7 | CC(=O)OCC(=O)[C@@]1(O)CC[C@H]2[C@@H]3C[C@H](C)C4=CC(=O)C=C[C@]4(C)[C@H]3[C@@H](O)C[C@@]21C [6alpha-METHYLPREDNISOLONE ACETATE] | 35.00 fold | –
8 | C[C@@H]1C[C@@H]([C@H](O)CC2CC(=O)NC(=O)C2)C(=O)[C@@H](C)C1 [Cycloheximide] | 34.00 fold | –
9 | CC(C)n1c(/C=C/C(O)CC(O)CC(=O)[O-])c(-c2ccc(F)cc2)c2ccccc21.[Na+] (stereo not shown) [Fluvastatin Na] | – | RT PCR Fold increase [1, 4]: 3.2 fold; q-PCR Fold increase [2, 4]: 7.8 fold
10 | CNCCCC12CCC(c3ccccc31)c1ccccc12 [Maprotiline] | – | RT PCR Fold increase ([1]; BIOMOL library (Table 2)): 3.6 fold; fold induction at 10 µM [2]: 2.4
11 | Verteporfin | 6.00 fold | –
12 | Nc1c2ccccc2nc2ccccc12 [Aminacrine (9-Aminoacridine)] | 5762.00 fold | –
13 | CN1CCc2cccc3c2[C@H]1Cc1ccc(O)c(O)c1-3 [Apomorphine r (−)] | – | RT PCR Fold increase ([1]; BIOMOL library (Table 2)): 4.6 fold; fold induction at 10 µM [2]: 7.3
14 | CC[C@@]1(O)C(=O)OCc2c1cc1n(c2=O)Cc2cc3c(CN(C)C)c(O)ccc3nc2-1 [Topotecan] | 365.00 fold | –
15 | CC[C@@H](C(=O)[C@@H](C)[C@@H](O)[C@H](C)CCc1ccc(C)c(O)c1C(=O)[O-])[C@H]1O[C@](CC)([C@H]2CC[C@](O)(CC)[C@H](C)O2)C[C@@H]1C.[Na+] [Laslocid Sodium] | 4.00 fold | –
16 | Cc1cc(/C=C/c2ccc3cc(N(C)C)ccc3[n+]2C)c(C)n1-c1ccccc1 [Pyrvinium pamoate] | 398.00 fold | –
17 | Oc1ccc(CCN2CCC(Nc3nc4ccccc4n3Cc3ccc(F)cc3)CC2)cc1 [Desmethyl astemizole] | 75.00 fold | –
18 | CCC1=C[C@@H]2CN(C1)Cc1c([nH]c3ccccc13)[C@@](C(=O)OC)(c1cc3c(cc1OC)N(C)[C@H]1[C@@](O)(C(=O)OC)[C@H](OC(C)=O)[C@]4(CC)C=CCN5CC[C@]31[C@@H]54)C2 [Vinorelbine tartrate] | 803.00 fold | –
19 | CC(C)(C)CC(C)(C)c1ccc(O)c(Cc2ccc(Cl)cc2Cl)c1 [Clofoctol] | 11.00 fold | –
20 | CC[C@H]1CN2CCc3cc(OC)c(OC)cc3[C@@H]2C[C@@H]1C[C@H]1NCCc2cc(OC)c(OC)cc21 [Emetine] | 220.00 fold | –
21 | COc1cc(NS(C)(=O)=O)ccc1Nc1c2ccccc2nc2ccccc12 [Amsacrine] | 85.00 fold | –
22 | CN(C)C(=S)SSC(=S)N(C)C [THIRAM] | 36.00 fold | –
23 | Acriflavine hydrochloride | 1491.00 fold | –
24 | C[CH2][Hg][S]c1ccccc1C(=O)[O-].[Na+] [THIMEROSAL] | 23.00 fold | –
25 | COc1ccc(-c2cc(=O)c3c(O)cc(O[C@@H]4O[C@H](CO[C@@H]5O[C@@H](C)[C@H](O)[C@@H](O)[C@H]5O)[C@@H](O)[C@H](O)[C@H]4O)cc3o2)cc1O [Diosmin] | 9.00 fold | –
26 | C=C(NC(=O)C(=C)NC(=O)c1csc(C2=N[C@@H]3c4csc(n4)[C@H]4NC(=O)c5csc(n5)[C@H]([C@](C)(O)[C@@H](C)O)NC(=O)[C@H]5CSC(=N5)/C(=C/C)NC(=O)[C@H]([C@@H](C)O)NC(=O)c5csc(n5)[C@]3(CC2)NC(=O)[C@H](C)NC(=O)C(=C)NC(=O)[C@H](C)NC(=O)[C@H]([C@@H](C)CC)N[C@@H]2C=Cc3c([C@H](C)O)cc(nc3[C@H]2O)C(=O)O[C@@H]4C)n1)C(N)=O [Thiostrepton] | 5.00 fold | –
27 | COc1ccc(C[C@H]2NC[C@H](O)[C@H]2OC(C)=O)cc1 [Anisomycin] | 670.00 fold and 387.00 fold | –
28 | O=P([O-])([O-])OC1C(OP(=O)([O-])[O-])C(OP(=O)([O-])[O-])C(OP(=O)([O-])[O-])C(OP(=O)([O-])[O-])C1OP(=O)([O-])[O-].[Na+].[Na+].[Na+].[Na+].[Na+].[Na+].[Na+].[Na+].[Na+].[Na+].[Na+].[Na+] (stereo not shown) [Phytic acid, dodecasodium salt hydrate] | 15.00 fold | –
29 | Proflavine hemisulfate salt hydrate | 177.00 fold | –
